Calls of active or inactive are those of the source. The calls are words filed in the database; no cut-off is given here. Square brackets hold non-standard residues; d marks the D form. Peptide text beside a SMILES is read from it. Hyp = O=C(O)[C@@H]1C[C@@H](O)CN1; Ahx = NCCCCCC(=O)O
Columns and labels:
[1] = target: T1, von Hippel-Lindau disease tumor suppressor/Estrogen receptor (Homo sapiens) (UniProt P03372+P40337); assay: Protac activity at VHL/ERalpha in human MCF7 cells assessed as degradation of ERalpha protein level at 10 uM after 12 hrs by Western blot analysis; assay type: cell-based
T1 sequence (P03372 whole entry, looked up): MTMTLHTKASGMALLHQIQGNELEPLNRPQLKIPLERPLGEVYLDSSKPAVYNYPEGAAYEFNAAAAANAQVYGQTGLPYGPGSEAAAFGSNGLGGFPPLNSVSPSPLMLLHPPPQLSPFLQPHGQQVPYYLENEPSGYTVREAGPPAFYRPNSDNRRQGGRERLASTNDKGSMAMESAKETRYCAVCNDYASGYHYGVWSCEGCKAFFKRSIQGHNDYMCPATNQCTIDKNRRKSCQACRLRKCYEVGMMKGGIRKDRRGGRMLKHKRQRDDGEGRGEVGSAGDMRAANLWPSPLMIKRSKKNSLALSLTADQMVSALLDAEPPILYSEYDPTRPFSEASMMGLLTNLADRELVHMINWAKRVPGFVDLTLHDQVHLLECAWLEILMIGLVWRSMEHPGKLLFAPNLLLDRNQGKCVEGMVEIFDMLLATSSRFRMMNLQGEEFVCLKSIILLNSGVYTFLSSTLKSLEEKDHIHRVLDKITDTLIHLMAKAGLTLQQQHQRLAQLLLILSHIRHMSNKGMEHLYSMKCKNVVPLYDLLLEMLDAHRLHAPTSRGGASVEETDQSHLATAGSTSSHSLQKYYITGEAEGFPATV
T1 sequence (P40337 whole entry, looked up): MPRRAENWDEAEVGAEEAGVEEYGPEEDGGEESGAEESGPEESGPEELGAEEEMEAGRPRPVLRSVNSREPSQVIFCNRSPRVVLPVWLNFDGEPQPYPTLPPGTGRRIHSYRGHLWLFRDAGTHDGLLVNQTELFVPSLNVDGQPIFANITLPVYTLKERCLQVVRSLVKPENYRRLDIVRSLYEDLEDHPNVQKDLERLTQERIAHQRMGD

[2] = system: MCF7; assay: Induction of apoptosis in human MCF7 cells assessed as necrotic cells at 10 uM after 12 hrs by annexinV-FITC/PI staining based flow cytometric analysis (reference value: 0.7 to 1.1%); assay type: functional
[3] = system: MCF7; assay: Cytotoxicity against human MCF7 cells assessed as reduction in cell viability at 5 to 80 uM after 48 hrs by MTT assay; assay type: functional, cell-based; conditions: dose 5-80 µM
[4] = system: MCF7; assay: Induction of apoptosis in human MCF7 cells assessed as early apoptotic cells at 10 uM after 12 hrs by annexinV-FITC/PI staining based flow cytometric analysis (reference value: 0.8 to 1.6%); assay type: functional
[5] = system: MCF7; assay: Induction of apoptosis in human MCF7 cells assessed as late apoptotic cells at 10 uM after 12 hrs by annexinV-FITC/PI staining based flow cytometric analysis (reference value: 0.9 to 1.9%); assay type: functional
[6] = Drug uptake in human MCF7 cells at 10 uM FITC labelled form of compound after 12 hrs by flow cytometric analysis; assay type: ADME, cell-based; conditions: mcf7, 12 h
[7] = system: MCF7; assay: Induction of apoptosis in human MCF7 cells assessed as viable cells at 10 uM after 12 hrs by annexinV-FITC/PI staining based flow cytometric analysis (reference value: 95.4 to 97.6%); assay type: functional; conditions: read-out: Activity
[8] = system: 4T1; assay: Antitumour activity against mouse 4T1 cells implanted in BALB/c mouse assessed as inhibition in tumor growth at 10 umol/kg administered peri-tumor injection for 21 days relative to control; assay type: functional; conditions: 4T1, 504 h, time 21 day, read-out: TGI
[9] = Toxicity in BALB/c mouse implanted with mouse 4T1 cells assessed as change in body weight at 10 umol/kg administered peri-tumor injection for 21 days; conditions: in vivo, other, 504 h, dose 10 µmol/kg, time 21 day
[10] = system: MCF7; assay: Cytotoxicity against human MCF7 cells assessed as reduction in cell viability after 48 hrs by MTT assay; assay type: functional, cell-based
[11] = system: HUVEC; assay: Cytotoxicity against human HUVEC cells assessed as reduction in cell viability at 5 to 80 uM after 48 hrs by MTT assay; assay type: cell-based; conditions: dose 5-80 µM
[12] = target: von Hippel-Lindau disease tumor suppressor/Vitamin D3 receptor (Homo sapiens) (UniProt P11473+P40337); assay: Protac activity at VHL/VDR in human MCF7 cells assessed as degradation of VDR protein level at 10 uM after 12 hrs by Western blot analysis; assay type: cell-based
Chain of von Hippel-Lindau disease tumor suppressor/Vitamin D3 receptor (Homo sapiens) (P11473 whole entry, looked up): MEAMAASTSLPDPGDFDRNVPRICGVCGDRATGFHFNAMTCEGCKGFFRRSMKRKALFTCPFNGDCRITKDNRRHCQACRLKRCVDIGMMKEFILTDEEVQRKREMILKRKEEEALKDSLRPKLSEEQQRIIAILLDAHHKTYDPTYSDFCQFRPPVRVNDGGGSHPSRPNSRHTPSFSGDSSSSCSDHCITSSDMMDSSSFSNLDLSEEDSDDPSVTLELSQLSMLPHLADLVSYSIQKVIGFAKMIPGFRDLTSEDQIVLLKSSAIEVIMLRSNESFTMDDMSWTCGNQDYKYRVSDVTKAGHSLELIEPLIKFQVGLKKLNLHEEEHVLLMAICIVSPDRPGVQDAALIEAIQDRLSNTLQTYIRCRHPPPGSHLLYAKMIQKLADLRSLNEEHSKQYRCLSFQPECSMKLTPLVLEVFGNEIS
Chain of von Hippel-Lindau disease tumor suppressor/Vitamin D3 receptor (Homo sapiens) (P40337 whole entry, looked up): as the sequence (P40337 whole entry, looked up) above

[13] = system: A2780; assay: Cytotoxicity against human A2780 cells assessed as reduction in cell viability at 5 to 80 uM after 48 hrs by MTT assay; assay type: functional, cell-based; conditions: dose 5-80 µM
[14] = system: MCF7; assay: Induction of apoptosis in human MCF7 cells assessed as viable cells at 5 uM after 12 hrs by annexinV-FITC/PI staining based flow cytometric analysis (reference value: 95.4 to 97.6%); assay type: functional; conditions: read-out: Activity
[15] = system: MDA-MB-231; assay: Cytotoxicity against human MDA-MB-231 cells assessed as reduction in cell viability at 5 to 80 uM after 48 hrs by MTT assay; assay type: functional, cell-based; conditions: dose 5-80 µM
[16] = Drug uptake in human MCF7 cells at 10 uM FITC labelled form of compound after 3 hrs by Hoechst 33258 staining based fluorescence microscopic analysis; assay type: ADME, cell-based; conditions: mcf7, 3 h
[17] = system: MCF7; assay: Induction of apoptosis in human MCF7 cells assessed as early apoptotic cells at 5 uM after 12 hrs by annexinV-FITC/PI staining based flow cytometric analysis (reference value: 0.8 to 1.6%); assay type: functional
[18] = Drug uptake in human MCF7 cells FITC labelled form of compound by flow cytometric analysis; assay type: ADME, cell-based; conditions: dose lower 2 µM, time lower 2 hrs, dose upper 16 µM, time upper 24 hrs
[19] = system: MCF7; assay: Induction of apoptosis in human MCF7 cells assessed as increase in late apoptotic cells after 12 hrs by annexinV-FITC/PI staining based flow cytometric analysis; assay type: functional, cell-based; conditions: dose 5-20 µM
[20] = system: MCF7; assay: Induction of apoptosis in human MCF7 cells assessed as viable cells at 20 uM after 12 hrs by annexinV-FITC/PI staining based flow cytometric analysis (reference value: 95.4 to 97.6%); assay type: functional; conditions: read-out: Activity
[21] = system: MCF7; assay: Induction of apoptosis in human MCF7 cells assessed as necrotic cells at 5 uM after 12 hrs by annexinV-FITC/PI staining based flow cytometric analysis (reference value: 0.7 to 1.1%); assay type: functional
[22] = target: von Hippel-Lindau disease tumor suppressor/Progesterone receptor (Homo sapiens) (UniProt P06401+P40337); assay: Protac activity at VHL/PR in human MCF7 cells assessed as degradation of PR protein level at 10 uM after 12 hrs by Western blot analysis; assay type: cell-based
Chain of von Hippel-Lindau disease tumor suppressor/Progesterone receptor (Homo sapiens) (P06401 whole entry, looked up): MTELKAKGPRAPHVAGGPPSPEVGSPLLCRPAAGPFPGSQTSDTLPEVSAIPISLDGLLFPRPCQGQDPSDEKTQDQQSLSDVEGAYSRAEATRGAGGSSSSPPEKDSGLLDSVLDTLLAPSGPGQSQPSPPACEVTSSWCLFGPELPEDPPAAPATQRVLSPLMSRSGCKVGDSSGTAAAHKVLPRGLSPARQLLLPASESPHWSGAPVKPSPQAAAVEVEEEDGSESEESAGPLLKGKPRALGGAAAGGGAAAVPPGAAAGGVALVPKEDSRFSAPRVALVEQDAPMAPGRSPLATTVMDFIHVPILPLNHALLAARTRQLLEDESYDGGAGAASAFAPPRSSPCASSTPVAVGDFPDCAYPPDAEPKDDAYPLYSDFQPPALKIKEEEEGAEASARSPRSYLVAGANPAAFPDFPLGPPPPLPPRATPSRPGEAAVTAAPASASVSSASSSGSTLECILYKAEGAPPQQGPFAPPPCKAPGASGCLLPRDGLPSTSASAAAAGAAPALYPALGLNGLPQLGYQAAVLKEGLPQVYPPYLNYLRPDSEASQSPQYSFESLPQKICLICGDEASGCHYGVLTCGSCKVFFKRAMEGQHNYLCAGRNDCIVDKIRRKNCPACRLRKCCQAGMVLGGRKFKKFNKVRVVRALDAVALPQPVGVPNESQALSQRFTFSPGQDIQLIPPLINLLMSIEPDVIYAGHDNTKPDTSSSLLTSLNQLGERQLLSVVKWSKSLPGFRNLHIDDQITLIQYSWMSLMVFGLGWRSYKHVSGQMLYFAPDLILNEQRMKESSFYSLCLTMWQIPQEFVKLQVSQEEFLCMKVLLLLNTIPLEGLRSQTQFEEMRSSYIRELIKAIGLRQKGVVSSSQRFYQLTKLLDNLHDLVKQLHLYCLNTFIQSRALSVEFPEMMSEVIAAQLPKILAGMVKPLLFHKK
Chain of von Hippel-Lindau disease tumor suppressor/Progesterone receptor (Homo sapiens) (P40337 whole entry, looked up): as the sequence (P40337 whole entry, looked up) above

[23] = system: MCF7; assay: Induction of apoptosis in human MCF7 cells assessed as increase in necrotic cells after 12 hrs by annexinV-FITC/PI staining based flow cytometric analysis; assay type: functional, cell-based; conditions: dose 5-20 µM
[24] = system: MCF7; assay: Induction of apoptosis in human MCF7 cells assessed as early apoptotic cells at 20 uM after 12 hrs by annexinV-FITC/PI staining based flow cytometric analysis (reference value: 0.8 to 1.6%); assay type: functional
[25] = system: MCF7; assay: Induction of apoptosis in human MCF7 cells assessed as necrotic cells at 20 uM after 12 hrs by annexinV-FITC/PI staining based flow cytometric analysis (reference value: 0.7 to 1.1%); assay type: functional
[26] = system: MCF7; assay: Induction of apoptosis in human MCF7 cells assessed as late apoptotic cells at 5 uM after 12 hrs by annexinV-FITC/PI staining based flow cytometric analysis (reference value: 0.9 to 1.9%); assay type: functional
[27] = target: T1, von Hippel-Lindau disease tumor suppressor/Estrogen receptor (Homo sapiens); assay: Protac activity at VHL/ERalpha in human A2780 cells assessed as degradation of ERalpha protein level at 10 uM after 12 hrs by Western blot analysis; assay type: cell-based
[28] = system: MCF7; assay: Induction of apoptosis in human MCF7 cells assessed as late apoptotic cells at 20 uM after 12 hrs by annexinV-FITC/PI staining based flow cytometric analysis (reference value: 0.9 to 1.9%); assay type: functional
[29] = target: T1, von Hippel-Lindau disease tumor suppressor/Estrogen receptor (Homo sapiens); assay: Protac activity at VHL/ERalpha in human MCF7 cells assessed as increase in ubiquitinated-ERalpha at 10 uM after 6 hrs in presence of MG-132 by Western blot analysis; assay type: cell-based
[30] = system: MCF7; assay: Cytotoxicity against human MCF7 cells assessed as reduction in cell viability at 20 uM after 48 hrs by MTT assay; assay type: functional, cell-based

In the case of `CC[C@H](C)[C@H](NC(=O)[C@H](Cc1ccc(O)cc1)NC(=O)[C@@H]1C[C@@H](O)CN1C(=O)[C@H](C)NC(=O)[C@H](CC(C)C)NC(=O)CCCCCNC(=O)[C@H](CCC(N)=O)NC(=O)C(CC(C)(C)C)NC(=O)[C@H](CC(C)C)NC(=O)[C@H](CCCNC(=N)N)NC(=O)[C@@H]1CNC(=O)C(N[C@@H](CCCNC(=N)N)C(N)=O)CC(=O)N[C@@H]([C@@H](C)CC)C(=O)N[C@@H](CC(C)C)C(=O)N1)C(N)=O` (some centres undefined), the Activity [1] is reported as “Active”, the Activity [2] is reported as 15.2% and the Activity [3] is reported as “Active”. For the same molecule, the Activity [4] was 0.4%, the Activity [5] was 7.7% and the Drug uptake [6] was “Active”. It also gave a viability at 10 µM [7] of 76.7%.

With `CC[C@H](C)[C@H](NC(=O)[C@H](Cc1ccc(O)cc1)NC(=O)[C@@H]1C[C@@H](O)CN1C(=O)[C@H](C)NC(=O)[C@H](CC(C)C)NC(=O)CCCCCNC(=O)[C@H](CCC(N)=O)NC(=O)[C@H](CC(C)C)NC(=O)C(CC(C)(C)C)NC(=O)[C@H](CCCNC(=N)N)NC(=O)[C@@H]1CNC(=O)C(N[C@@H](CCCNC(=N)N)C(N)=O)CC(=O)N[C@@H]([C@@H](C)CC)C(=O)N[C@@H](CC(C)C)C(=O)N1)C(N)=O` (some centres undefined) the Activity [1] was “Active”, the Activity [2] was 12.7% and the Activity [3] was “Active”. The Activity [4] was 0.9%, the Activity [5] was 7.9% and the Drug uptake [6] was “Active”. For the same molecule, the viability at 10 µM [7] was 78.5%.

With `CC[C@H](C)[C@H](NC(=O)[C@H](Cc1ccc(O)cc1)NC(=O)[C@@H]1C[C@@H](O)CN1C(=O)[C@H](C)NC(=O)[C@H](CC(C)C)NC(=O)CCCCCNC(=O)[C@H](CCC(N)=O)NC(=O)[C@H](CC(C)C)NC(=O)[C@H](CC(C)C)NC(=O)[C@H](CCCNC(=N)N)NC(=O)[C@@H]1CNC(=O)C(N[C@@H](CCCNC(=N)N)C(N)=O)CC(=O)N[C@@H]([C@@H](C)CC)C(=O)N[C@@H](CC(C)C)C(=O)N1)C(N)=O` (some centres undefined) the Activity [1] was “Active”, the inhibition in vivo at 10 µmol/kg [8] was 52% and the Activity [2] was 8%. For the same molecule, the Activity [3] was “Active”, the Activity [4] was 1.3% and the Activity [9] was “Non-Toxic”. For the same molecule, the Activity [5] was 5.8%, the Drug uptake [6] was “Active” and the viability at 10 µM [7] was 85%.

With `CC[C@H](C)[C@H](NC(=O)[C@H](Cc1ccc(O)cc1)NC(=O)[C@@H]1C[C@@H](O)CN1C(=O)[C@H](C)NC(=O)[C@H](CC(C)C)NC(=O)CCCCCNC(=O)[C@H](CCC(N)=O)NC(=O)[C@H](CC(C)C)NC(=O)[C@H](CC(C)C)NC(=O)[C@H](CCCNC(=N)N)NC(=O)[C@@H]1CNC(=O)C(N[C@@H](CCCNC(=N)N)C(N)=O)CC(=O)N[C@@H]([C@@H](C)CC)C(=O)NC(CC(C)(C)C)C(=O)N1)C(N)=O` (some centres undefined) the Activity [1] was “Active”, the Activity [2] was 11.9% and the Activity [3] was “Active”. For the same molecule, the Activity [4] was 0.7%, the Activity [5] was 7.1% and the Drug uptake [6] was “Active”. The viability at 10 µM [7] was 80.2%.

In the case of `CC[C@H](C)[C@H](NC(=O)[C@H](Cc1ccc(O)cc1)NC(=O)[C@@H]1C[C@@H](O)CN1C(=O)[C@H](C)NC(=O)[C@H](CC(C)C)NC(=O)CCCCCNC(=O)[C@H](CCC(N)=O)NC(=O)C(CC(C)(C)C)NC(=O)C(CC(C)(C)C)NC(=O)[C@H](CCCNC(=N)N)NC(=O)[C@@H]1CNC(=O)C(N[C@@H](CCCNC(=N)N)C(N)=O)CC(=O)N[C@@H]([C@@H](C)CC)C(=O)NC(CC(C)(C)C)C(=O)N1)C(N)=O` (some centres undefined), the Activity [1] is reported as “Active”, the Activity [10] is reported as “Dose-dependent effect” and the IC50 ([10]; MCF7, 48 h) is reported as 9.7 µM. The Activity [11] was “Non-Toxic”, the Activity [12] was “inactive” and the inhibition in vivo at 10 µmol/kg [8] was 67%. For the same molecule, the Activity [13] was “Active”, the viability at 5 µM [14] was 87.2% and the Activity [15] was “Active”. The Activity [2] was 26.2%, the Drug uptake [16] was “Active” and the Activity [17] was 1.3%. The Drug uptake [18] was “Dose-dependent effect and Tde”, the Activity [19] was “Dose-dependent effect” and the viability at 20 µM [20] was 28.8%. The Activity [21] was 5.5%, the Activity [3] was “Active” and the Activity [22] was “inactive”. The Activity [23] was “Dose-dependent effect”, the Activity [4] was 0.7% and the Activity [24] was 0.4%. The Activity [25] was 44.6%, the Activity [9] was “Non-Toxic” and the Activity [5] was 13.6%. The Activity [26] was 6%, the Activity [27] was “Active” and the Drug uptake [6] was “Active”. For the same molecule, the viability at 10 µM [7] was 59.5%, the Activity [28] was 26.2% and the Activity [29] was “Active”.

In the case of `CC/C(=C(\c1ccccc1)c1ccc(OCCN(C)C)cc1)c1ccccc1` [TAMOXIFEN], the inhibition in vivo at 10 µmol/kg [8] is reported as 36% and the Activity [3] is reported as “Active”.

In the case of `CC[C@H](C)[C@H](NC(=O)[C@H](Cc1ccc(O)cc1)NC(=O)[C@@H]1C[C@@H](O)CN1C(=O)[C@H](C)NC(=O)[C@H](CC(C)C)NC(=O)CCCCCNC(=O)[C@H](CCC(N)=O)NC(=O)[C@H](CC(C)C)NC(=O)[C@H](CC(C)C)NC(=O)[C@H](CCCNC(=N)N)NC(=O)[C@H](Cc1c[nH]cn1)NC(=O)[C@H](CC(C)C)NC(=O)[C@@H](NC(=O)[C@H](CCCCN)NC(=O)[C@@H](N)Cc1c[nH]cn1)[C@@H](C)CC)C(N)=O` (H-HKILHRLLQ[Ahx]LA[Hyp]YI-NH2), the Activity [1] is reported as “Active”, the Activity [30] is reported as “Active” and the Activity [2] is reported as 2.9%. For the same molecule, the Activity [4] was 0.9%, the Activity [5] was 2.7% and the Drug uptake [6] was “Active”. It also gave a viability at 10 µM [7] of 93.4%.

From ChEMBL document CHEMBL4706485, “Development of cell-permeable peptide-based PROTACs targeting estrogen receptor α” (Eur J Med Chem, 2020)
